In the supplement of paper PMC10307832:

These cell lines were tested with NC(=O)c1ccc(N(C(N)=O)c2c(F)cccc2F)nc1-c1ccc(F)cc1F [VX-702] + CS(=O)(=O)N1CCN(Cc2cc3nc(-c4cccc5[nH]ncc45)nc(N4CCOCC4)c3s2)CC1 [Pictilisib] (partner 1 µM) (assay: relative viability (nuclei count vs DMSO), 5 days (fraction); higher = more cells survive). Conditions: first compound 0.02 µM.
Method in brief: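 Lung cancer cell lines in 1536-well plates got either a single drug or a fixed anchor-drug dose together with five library-drug doses (not always all listed) in √10 steps, by pin tool, on the day after seeding. Nuclei were counted after 5 days, and relative viability is the treated-to-vehicle ratio of nuclei counts. Values are medians of duplicate plates.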
For NCI-H1703, the relative viability was 0.229.
With UMC-11 the relative viability was 0.696.
Cell Line NCI-H650 has a relative viability of 0.745.
Work on LCLC-103H yielded a relative viability of 0.638.
In the case of NCI-H596, the relative viability is reported as 0.398.
With HCC-827 the relative viability was 0.856.
COR-L 105 gave a relative viability of 0.449.
With NCI-H1299 the relative viability was 0.802.
Cell Line NCI-H2126 has a relative viability of 0.502.
A549 was tested, and the relative viability was 0.48.
Cell Line NCI-H647 has a relative viability of 0.479.
In the case of LOU-NH91, the relative viability is reported as 0.545.
In the case of HCC-78, the relative viability is reported as 0.224.
In the case of HCC-44, the relative viability is reported as 0.726.
NCI-H1651 gave a relative viability of 0.649.
Cell Line NCI-H1755 has a relative viability of 0.395.
HOP-62 showed a relative viability of 0.852.
With PC-14 the relative viability was 0.629.
NCI-H1650 was tested, and the relative viability was 0.641.
With ChaGo-K-1 the relative viability was 0.73.
Cell Line A-427 has a relative viability of 0.786.
In the case of NCI-H1355, the relative viability is reported as 0.514.
Calu-6 showed a relative viability of 0.973.
For COR-L23, the relative viability was 0.908.
SK-LU-1 showed a relative viability of 0.647.
With SW 1573 the relative viability was 0.439.
Work on NCI-H1563 yielded a relative viability of 0.685.
Work on NCI-H661 yielded a relative viability of 0.395.
NCI-H2009 was tested, and the relative viability was 0.866.
Cell Line NCI-H520 has a relative viability of 0.282.
With EBC-1 the relative viability was 0.381.
Work on NCI-H2023 yielded a relative viability of 0.238.
With SK-MES-1 the relative viability was 0.342.

Same assay, conditions: first compound 0.2 µM
Work on CAL-12T yielded a relative viability of 0.185.
NCI-H1944 showed a relative viability of 0.333.
With NCI-H2085 the relative viability was 0.47.
IA-LM was tested, and the relative viability was 0.324.
With NCI-H2228 the relative viability was 0.431.
With NCI-H441 the relative viability was 0.492.
Cell Line EMC-BAC-2 has a relative viability of 0.555.
NCI-H2170 was tested, and the relative viability was 0.317.
Cell Line NCI-H1703 has a relative viability of 0.277.
For UMC-11, the relative viability was 0.762.
LCLC-103H was tested, and the relative viability was 0.621.
NCI-H596 gave a relative viability of 0.246.
HCC-827 was tested, and the relative viability was 0.701.
COR-L 105 gave a relative viability of 0.386.
NCI-H1299 was tested, and the relative viability was 0.65.
Cell Line NCI-H2126 has a relative viability of 0.487.
Work on A549 yielded a relative viability of 0.517.
NCI-H647 was tested, and the relative viability was 0.432.
LOU-NH91 showed a relative viability of 0.489.
HCC-78 showed a relative viability of 0.17.
For HCC-44, the relative viability was 0.552.
NCI-H1651 gave a relative viability of 0.645.
With NCI-H1755 the relative viability was 0.389.
With HOP-62 the relative viability was 0.652.
PC-14 gave a relative viability of 0.608.
NCI-H1650 showed a relative viability of 0.326.
Cell Line ChaGo-K-1 has a relative viability of 0.3.
A-427 was tested, and the relative viability was 0.706.
For NCI-H1355, the relative viability was 0.439.
Calu-6 showed a relative viability of 1.05.
In the case of COR-L23, the relative viability is reported as 0.855.
For SK-LU-1, the relative viability was 0.501.
Work on SW 1573 yielded a relative viability of 0.388.
NCI-H1563 gave a relative viability of 0.626.
NCI-H661 showed a relative viability of 0.458.
NCI-H2009 was tested, and the relative viability was 0.739.
NCI-H520 showed a relative viability of 0.216.
For EBC-1, the relative viability was 0.331.
Cell Line NCI-H2023 has a relative viability of 0.228.
Cell Line SK-MES-1 has a relative viability of 0.293.

Same assay, conditions: first compound 0.6325 µM
ABC-1 showed a relative viability of 0.649.
In the case of CAL-12T, the relative viability is reported as 0.536.
In the case of NCI-H1944, the relative viability is reported as 0.326.
NCI-H2085 gave a relative viability of 0.466.
In the case of IA-LM, the relative viability is reported as 0.265.
NCI-H2228 was tested, and the relative viability was 0.343.
NCI-H441 was tested, and the relative viability was 0.352.
With EMC-BAC-2 the relative viability was 0.508.
With NCI-H2170 the relative viability was 0.324.
Work on NCI-H1703 yielded a relative viability of 0.218.
UMC-11 showed a relative viability of 0.582.
Cell Line NCI-H650 has a relative viability of 0.821.
With LCLC-103H the relative viability was 0.666.
With NCI-H596 the relative viability was 0.392.
HCC-827 showed a relative viability of 0.99.
COR-L 105 gave a relative viability of 0.409.
Cell Line NCI-H1299 has a relative viability of 0.554.
Cell Line NCI-H2126 has a relative viability of 0.459.
A549 was tested, and the relative viability was 0.519.
NCI-H647 showed a relative viability of 0.461.
LOU-NH91 gave a relative viability of 0.491.
With HCC-78 the relative viability was 0.176.
HCC-44 showed a relative viability of 0.479.
NCI-H1651 showed a relative viability of 0.668.
For NCI-H1755, the relative viability was 0.409.
Work on HOP-62 yielded a relative viability of 0.597.
With PC-14 the relative viability was 0.625.
Work on NCI-H1650 yielded a relative viability of 0.596.
ChaGo-K-1 showed a relative viability of 0.591.
Cell Line A-427 has a relative viability of 0.701.
NCI-H1355 was tested, and the relative viability was 0.338.
For Calu-6, the relative viability was 0.996.
COR-L23 was tested, and the relative viability was 0.772.
For SK-LU-1, the relative viability was 0.563.
For SW 1573, the relative viability was 0.361.
NCI-H1563 was tested, and the relative viability was 0.594.
NCI-H661 showed a relative viability of 0.426.
In the case of NCI-H2009, the relative viability is reported as 0.789.
In the case of NCI-H520, the relative viability is reported as 0.25.
EBC-1 gave a relative viability of 0.307.
With NCI-H2023 the relative viability was 0.192.
SK-MES-1 showed a relative viability of 0.364.

Same assay, conditions: first compound 2 µM
ABC-1 gave a relative viability of 0.655.
CAL-12T showed a relative viability of 0.534.
In the case of NCI-H1944, the relative viability is reported as 0.284.
With NCI-H2085 the relative viability was 0.4.
IA-LM was tested, and the relative viability was 0.352.
With NCI-H2228 the relative viability was 0.507.
Cell Line NCI-H441 has a relative viability of 0.494.
In the case of EMC-BAC-2, the relative viability is reported as 0.432.
Cell Line NCI-H2170 has a relative viability of 0.283.
Work on NCI-H1703 yielded a relative viability of 0.263.
With UMC-11 the relative viability was 0.813.
In the case of NCI-H650, the relative viability is reported as 1.05.
Work on LCLC-103H yielded a relative viability of 0.613.
NCI-H596 was tested, and the relative viability was 0.389.
With HCC-827 the relative viability was 0.355.
COR-L 105 was tested, and the relative viability was 0.366.
Cell Line NCI-H1299 has a relative viability of 0.547.
NCI-H2126 was tested, and the relative viability was 0.448.
In the case of A549, the relative viability is reported as 0.705.
With NCI-H647 the relative viability was 0.644.
LOU-NH91 showed a relative viability of 0.53.
HCC-78 gave a relative viability of 0.237.
HCC-44 showed a relative viability of 0.522.
Cell Line NCI-H1651 has a relative viability of 0.57.
Work on NCI-H1755 yielded a relative viability of 0.486.
HOP-62 showed a relative viability of 0.683.
In the case of PC-14, the relative viability is reported as 0.807.
In the case of NCI-H1650, the relative viability is reported as 0.586.
ChaGo-K-1 showed a relative viability of 1.12.
A-427 gave a relative viability of 0.566.
NCI-H1355 was tested, and the relative viability was 0.46.
Calu-6 was tested, and the relative viability was 1.11.
Work on COR-L23 yielded a relative viability of 1.06.
SK-LU-1 gave a relative viability of 0.645.
SW 1573 was tested, and the relative viability was 0.482.
NCI-H1563 gave a relative viability of 0.625.
With NCI-H661 the relative viability was 0.421.
Work on NCI-H2009 yielded a relative viability of 1.05.
NCI-H520 was tested, and the relative viability was 0.306.
Work on EBC-1 yielded a relative viability of 0.311.
Work on NCI-H2023 yielded a relative viability of 0.221.
With SK-MES-1 the relative viability was 0.313.
